PubChem BioAssay (NCI)
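These data come from cells grown in 96-well plates and exposed to compound for 48 hours at five concentrations. GI50 = concentration required for 50% inhibition of growth. TGI denotes the concentration required for complete inhibition of growth.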

What was measured:
Assay in all cases: NCI-60 cell line screen, 48 h
HCC-2998 colon = tested on: HCC-2998 colon
NCI/ADR-RES ovarian = tested on: NCI/ADR-RES ovarian
OVCAR-8 ovarian = tested on: OVCAR-8 ovarian
TK-10 renal = tested on: TK-10 renal
SNB-75 CNS = tested on: SNB-75 CNS
CAKI-1 renal = tested on: CAKI-1 renal
IGROV1 ovarian = tested on: IGROV1 ovarian
HS 578T breast = tested on: HS 578T breast
EKVX NSCLC = tested on: EKVX NSCLC
ACHN renal = tested on: ACHN renal
SK-MEL-28 melanoma = tested on: SK-MEL-28 melanoma
DU-145 prostate = tested on: DU-145 prostate
SN12C renal = tested on: SN12C renal
MDA-MB-435 = tested on: MDA-MB-435
PC-3 prostate = tested on: PC-3 prostate
HT29 colon = tested on: HT29 colon
U251 CNS = tested on: U251 CNS
RXF 393 renal = tested on: RXF 393 renal
SF-295 CNS = tested on: SF-295 CNS
UO-31 renal = tested on: UO-31 renal
SK-OV-3 ovarian = tested on: SK-OV-3 ovarian
SF-268 CNS = tested on: SF-268 CNS
HL-60(TB) leukemia = tested on: HL-60(TB) leukemia
CCRF-CEM leukemia = tested on: CCRF-CEM leukemia
K-562 leukemia = tested on: K-562 leukemia
786-0 renal = tested on: 786-0 renal
HCT-116 colon = tested on: HCT-116 colon
KM12 colon = tested on: KM12 colon

**Q.** What does the source list for `O=c1oc2ccc(-c3ccc(F)cc3F)cc2c(=O)n1-c1cccc(C(F)(F)F)c1`?
**A.** TGI (HCC-2998 colon): 6.24 µM; GI50 (NCI/ADR-RES ovarian): 1.27 µM; TGI (NCI/ADR-RES ovarian): 3.96 µM; GI50 (OVCAR-8 ovarian): 1.72 µM; TGI (OVCAR-8 ovarian): > 50 µM; GI50 (TK-10 renal): 2.25 µM; TGI (TK-10 renal): 12 µM; GI50 (SNB-75 CNS): 0.906 µM; TGI (SNB-75 CNS): 2.59 µM; GI50 (CAKI-1 renal): 1.02 µM; TGI (CAKI-1 renal): 2.99 µM; GI50 (IGROV1 ovarian): 1.49 µM; TGI (IGROV1 ovarian): 8.81 µM; GI50 (HS 578T breast): 1.31 µM; TGI (HS 578T breast): 4.64 µM; GI50 (EKVX NSCLC): 1.18 µM; TGI (EKVX NSCLC): 4.64 µM; GI50 (ACHN renal): 1.39 µM; TGI (ACHN renal): 4.26 µM; GI50 (SK-MEL-28 melanoma): 1.73 µM; TGI (SK-MEL-28 melanoma): 7.48 µM; GI50 (DU-145 prostate): 2 µM; TGI (DU-145 prostate): > 50 µM; GI50 (SN12C renal): 1.35 µM; TGI (SN12C renal): 4.15 µM; GI50 (MDA-MB-435): 1.58 µM; TGI (MDA-MB-435): 5.34 µM; GI50 (PC-3 prostate): 1.64 µM; TGI (PC-3 prostate): 7.54 µM; GI50 (HT29 colon): 6.24 µM; TGI (HT29 colon): > 50 µM; GI50 (U251 CNS): 1.7 µM; TGI (U251 CNS): > 50 µM; GI50 (RXF 393 renal): 1.28 µM; TGI (RXF 393 renal): 3.93 µM; GI50 (SF-295 CNS): 1.23 µM; TGI (SF-295 CNS): 3.34 µM; GI50 (UO-31 renal): 1.13 µM; TGI (UO-31 renal): 4.92 µM; GI50 (SK-OV-3 ovarian): 1.31 µM; TGI (SK-OV-3 ovarian): 3.97 µM; GI50 (SF-268 CNS): 1.55 µM; TGI (SF-268 CNS): 12 µM; GI50 (HL-60(TB) leukemia): 1.1 µM; TGI (HL-60(TB) leukemia): 2.89 µM; GI50 (CCRF-CEM leukemia): 1.71 µM; TGI (CCRF-CEM leukemia): 24.5 µM; GI50 (K-562 leukemia): 1.63 µM; TGI (K-562 leukemia): > 50 µM; GI50 (786-0 renal): 1.77 µM; TGI (786-0 renal): 9.55 µM; GI50 (HCT-116 colon): 1.55 µM; TGI (HCT-116 colon): 5.85 µM; GI50 (KM12 colon): 1.61 µM; TGI (KM12 colon): 5.46 µM
